A value given as a limit tells only on which side of the number the result lay.

The results in this text go back to PMC9042253 (RSC Advances, 2021).

One assay concerns the target T1, CD38 cyclase (Homo sapiens, UniProt P28907).
T1 sequence (P28907 1-300): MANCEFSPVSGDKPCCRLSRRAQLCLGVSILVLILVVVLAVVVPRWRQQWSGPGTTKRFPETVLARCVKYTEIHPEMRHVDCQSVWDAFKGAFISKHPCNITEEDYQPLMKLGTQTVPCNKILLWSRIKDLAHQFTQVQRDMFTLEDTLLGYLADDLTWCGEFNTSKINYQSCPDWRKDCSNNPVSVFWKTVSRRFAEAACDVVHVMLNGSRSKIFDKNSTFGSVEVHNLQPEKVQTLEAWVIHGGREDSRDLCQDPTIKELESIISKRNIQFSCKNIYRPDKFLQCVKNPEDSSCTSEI
In words: CD38 cyclase activity, fluorometric assay with NGD+ as substrate. It is filed as biochemical. As to conditions: for remaining activity at 50 µM: read-out: % cyclase activity remaining (50 μM).

Another assay deals with PBMCs. In words: Cytokine analysis. It is filed as cell-based. To be noted: 1.0 μM, 48 hours, activated PBMCs from 3 donors.
The target in the next assay is T2, CD38 hydrolase (Homo sapiens, UniProt P28907).
T2 sequence (P28907 1-300): T1 sequence (P28907 1-300)
Nature of the assay: CD38 hydrolase activity, fluorometric assay with ε-NAD+ as substrate. To be noted: hydrolase versus cyclase screen. Type of assay: biochemical.

As usually defined, the IC50 is the midpoint of a concentration-inhibition curve. Low readings indicate greater potency, high ones weaker potency. A word on the remaining activity: it is the activity still measured, relative to the control. Take `CS(=O)(=O)c1ccc(/C=C2\SC(=S)NC2=O)cc1` [Compound 21]: at CD38 cyclase, inhibition was half-maximal at 11.5 µM (IC50) and the remaining activity at 50 µM was 22.1 ± 4%.
With `O=C1NC(=S)S/C1=C\c1ccc(OC(F)(F)F)cc1` [Compound 22], on CD38 cyclase, the IC50 worked out at 4.81 µM and the remaining activity at 50 µM was determined as 21.7 ± 8.1%.
For the compound `O=C1NC(=S)S/C1=C\c1ccc(C(F)(F)F)cc1` [Compound 23], the “increase in IFNγ (in words)” value with PBMCs is “more effective than 78c”. At CD38 cyclase, the IC50 is 4.65 µM and the remaining activity at 50 µM came to 9.3 ± 0.8%.
For the compound `COc1ccc(-c2ccc(/C=C3\SC(=S)N(C)C3=O)cc2)cc1` [Compound 24], at CD38 cyclase, the IC50 is greater than 100 µM and the remaining activity at 50 µM amounted to 90.1 ± 3.9%.
`O=C1NC(=S)S/C1=C\c1ccc2ncccc2c1` [Compound 25]: on CD38 cyclase, the IC50 worked out at 56 µM and the remaining activity at 50 µM turned out to be 68.3 ± 18.2%.
Take `O=C1NC(=S)S/C1=C\c1ccc2oc3ccccc3c2c1` [Compound 26]: at CD38 cyclase, the IC50 was greater than 100 µM and the remaining activity at 50 µM is 77.3 ± 22.4%.
Consider `O=C1NC(=S)S/C1=C\c1ccc(Oc2ccccc2)cc1` [Compound 27], for which, at CD38 cyclase, the half-maximal inhibitory concentration (IC50) was greater than 100 µM and the remaining activity at 50 µM was determined as 88.2 ± 0.6%.
With `O=C1NC(=S)S/C1=C\c1ccc2c(c1)OCCO2` [Compound 28], at CD38 cyclase, the IC50 is greater than 100 µM and the remaining activity at 50 µM stood at 93.9 ± 6.9%.
Consider `Cc1ccc(-c2cccc(/C=C3\SC(=S)NC3=O)c2)cc1` [Compound 29], for which, at CD38 cyclase, the IC50 was greater than 100 µM and the remaining activity at 50 µM was determined as 98.6 ± 4.7%.
`O=C1NC(=S)S/C1=C\c1cc2cc3c(cc2nc1Cl)OCO3` [Compound 30]: at CD38 cyclase, the midpoint of inhibition, the IC50, lay at 20.9 µM and the remaining activity at 50 µM amounted to 70.3 ± 40.7%.
`O=C1NC(=S)S/C1=C\c1ccc2c(c1)-c1ccccc1C2` [Compound 31]: at CD38 cyclase, the IC50 was greater than 100 µM and the remaining activity at 50 µM stood at 96.3 ± 6.8%.
For `O=C1NC(=S)S/C1=C\c1ccc(-c2ccc(C(F)(F)F)cc2)cc1` [Compound 32], the “increase in IFNγ (in words)” value in the assay on PBMCs is on record as “more effective than 78c”. Further, at CD38 cyclase, half-maximal inhibition (IC50) was put at 3.15 µM and the remaining activity at 50 µM was 64.5 ± 4.2%.
Take `Cc1ccc(-c2ccc(/C=C3\SC(=S)NC3=O)cc2)cc1` [Compound 33]: at CD38 cyclase, 10 µM corresponded to half-maximal inhibition (IC50) and the remaining activity at 50 µM amounted to 39.4 ± 4.9%.
As to `O=C1NC(=S)S/C1=C\c1ccc(-c2ccccn2)cc1` [Compound 34], at CD38 cyclase, the IC50 was 56 µM and the remaining activity at 50 µM was determined as 66.3 ± 23.4%.
As for `O=C1NC(=S)S/C1=C\c1ccc(-c2cccc(C(F)(F)F)c2)o1` [Compound 35], at CD38 cyclase, the IC50 is greater than 100 µM and the remaining activity at 50 µM worked out at 81.7 ± 9%.
`COc1ccc2cc(/C=C3\SC(=S)NC3=O)ccc2c1` [Compound 36]: at CD38 cyclase, the IC50 is greater than 100 µM and the remaining activity at 50 µM came to 90 ± 5.4%.
As for `Cc1ccc(-c2ccc(/C=C3\SC(=O)NC3=O)cc2)cc1` [Compound 37], on CD38 cyclase, the IC50 is greater than 100 µM and the remaining activity at 50 µM came to 84.5 ± 2.2%.
As to `O=C1NC(=S)S/C1=C\c1ccc(OCc2ccccc2)cc1` [Compound 38], at CD38 cyclase, the IC50 is greater than 100 µM and the remaining activity at 50 µM came to 84.5 ± 8.5%.
Turning to `COc1cc(/C=C2\SC(=S)NC2=O)cc(OC)c1OC` [Compound 39], on CD38 cyclase, the IC50 stood at 68.6 µM and the remaining activity at 50 µM was found to be 64.1 ± 7.2%.
As for `O=C1NC(=S)S/C1=C\c1ccc(-c2ccccc2)cc1` [Compound 40], on CD38 cyclase, the remaining activity at 50 µM is 22.1 ± 14.3%.
For `O=C1NC(=S)S/C1=C\c1ccccc1C(F)(F)F` [Compound 41], at CD38 cyclase, the IC50 is greater than 100 µM and the remaining activity at 50 µM was 81.6 ± 2.4%.
In the same order, the values of `O=C1NC(=S)S/C1=C\c1ccccc1OC(F)(F)F` [Compound 42] are greater than 100 µM and 87.1 ± 3.4%.
Consider `Cc1ccc(-c2ccc(/C=C3\SC(=S)N(C)C3=O)cc2)cc1` [Compound 43], for which, at CD38 cyclase, the IC50 is 48.2 µM and the remaining activity at 50 µM turned out to be 29 ± 18.8%.
Take `COc1ccc(-c2ccc(/C=C3\SC(=S)NC3=O)cc2)cc1` [Compound 45]: at CD38 cyclase, 53.8 µM corresponded to half-maximal inhibition (IC50) and the remaining activity at 50 µM is 55.7 ± 2.3%.
For the compound `O=c1cc(-c2ccc(O)cc2)oc2cc(O)cc(O)c12` [apigenin], at CD38 hydrolase, the “selectivity between hydrolase and cyclase activity (in words)” value is on record as “neither compound showed significant selectivity”.
